Experimental data as given in ChEMBL document CHEMBL1201862, “PubChem BioAssay data set” (2004).
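Following 48 hours of exposure in 96-well plates, responses at five concentrations were used to interpolate endpoints linearly. The concentration for 50% growth inhibition is given as GI50.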 Activity calls are given as the source filed them. No stated cut-off is given here; in the data, active = GI50 up to about 1.1 µM and inactive = higher.

Columns and labels:
Experiment in all cases: DTP human tumour cell line panel, 48 h
A549 = system: A549
ACHN = system: ACHN
HCT-15 = system: HCT-15
HL-60 = system: HL-60
HT-29 = system: HT-29
IGROV-1 = system: IGROV-1
KM12 = system: KM12
MDA-MB-231 = system: MDA-MB-231
MDA-MB-435 = system: MDA-MB-435
MOLT-4 = system: MOLT-4
NCI-H23 = system: NCI-H23
NCI-H460 = system: NCI-H460
OVCAR-3 = system: OVCAR-3
OVCAR-4 = system: OVCAR-4
OVCAR-5 = system: OVCAR-5
PC-3 = system: PC-3
RPMI-8226 = system: RPMI-8226
SF-295 = system: SF-295
SF-539 = system: SF-539
SNB-75 = system: SNB-75

Structure (SMILES)	GI50 (A549)	GI50 (ACHN)	GI50 (HCT-15) [µM]	GI50 (HL-60)	GI50 (HT-29)	GI50 (IGROV-1)	GI50 (KM12)	GI50 (MDA-MB-231)	GI50 (MDA-MB-435)	GI50 (MOLT-4)	GI50 (NCI-H23)	GI50 (NCI-H460)	GI50 (OVCAR-3)	GI50 (OVCAR-4)	GI50 (OVCAR-5)	GI50 (PC-3)	GI50 (RPMI-8226)	GI50 (SF-295)	GI50 (SF-539)	GI50 (SNB-75)
Cc1ccc2c(=O)c(C(=O)Nn3c(C)csc3=S)c[nH]c2n1	> 100 µM (inactive)	> 100 µM (inactive)	> 100	> 100 µM (inactive)	> 100 µM (inactive)	> 100 µM (inactive)	> 100 µM (inactive)	> 100 µM (inactive)	> 100 µM (inactive)	> 100 µM (inactive)	> 100 µM (inactive)	> 100 µM (inactive)	> 100 µM (inactive)	> 100 µM (inactive)	> 100 µM (inactive)	> 100 µM (inactive)	> 100 µM (inactive)	> 100 µM (inactive)		
Clc1ccc(C2=CCN3CC=C(c4ccc(Cl)cc4)C23)cc1	14.2 µM (inactive)	13.7 µM (inactive)	11.1	4.78 µM (inactive)	5.21 µM (inactive)	9.93 µM (inactive)	6.64 µM (inactive)	12.4 µM (inactive)	10.7 µM (inactive)	5.28 µM (inactive)	12 µM (inactive)	9.98 µM (inactive)	12.6 µM (inactive)	8.26 µM (inactive)	3.78 µM (inactive)		4.66 µM (inactive)	14.6 µM (inactive)	15.9 µM (inactive)	
OCc1c(-c2cccc3ccccc23)sc(-c2cccc3ccccc23)c1CO		12.3 µM (inactive)	14.7	15.5 µM (inactive)	15.3 µM (inactive)	14.1 µM (inactive)	12.4 µM (inactive)			9.04 µM (inactive)	14.5 µM (inactive)	14.3 µM (inactive)	13.4 µM (inactive)		17 µM (inactive)		6.9 µM (inactive)	14.1 µM (inactive)	15.3 µM (inactive)	14.3 µM (inactive)
NC(=S)N/N=C/C(O[C@@H](/C=N/NC(N)=S)CO)n1cnc2c(N)ncnc21 (stereo partly specified)	> 65.3 µM (inactive)	> 100 µM (inactive)	> 42.3	67 µM (inactive)	> 62.5 µM (inactive)	> 56.2 µM (inactive)	> 100 µM (inactive)			50.7 µM (inactive)	> 100 µM (inactive)	> 80.5 µM (inactive)	> 55.3 µM (inactive)	> 100 µM (inactive)	> 100 µM (inactive)		> 45 µM (inactive)	> 100 µM (inactive)	> 100 µM (inactive)	> 52.4 µM (inactive)
COC(=O)[C@@]1(Cc2ccc(OC(C)=O)cc2)Cc2cc3ccccc3n2N1	47.2 µM (inactive)	58.1 µM (inactive)	53.5	20.3 µM (inactive)	36 µM (inactive)	55.8 µM (inactive)	60.7 µM (inactive)	29.2 µM (inactive)	43.6 µM (inactive)	26.8 µM (inactive)	25.3 µM (inactive)		69.5 µM (inactive)	75.5 µM (inactive)	94.4 µM (inactive)	30 µM (inactive)	26.6 µM (inactive)	46.8 µM (inactive)	58.7 µM (inactive)	
C=C(Br)N(CC)CC	> 100 µM (inactive)	> 100 µM (inactive)	> 100	> 100 µM (inactive)	> 100 µM (inactive)	> 100 µM (inactive)	> 100 µM (inactive)			> 100 µM (inactive)	> 100 µM (inactive)	> 100 µM (inactive)	> 100 µM (inactive)	> 100 µM (inactive)	> 100 µM (inactive)		> 100 µM (inactive)	> 100 µM (inactive)	> 100 µM (inactive)	> 100 µM (inactive)
CN(C)C(=S)N=C(Nc1ccccc1)Nc1ccccc1	> 100 µM (inactive)	> 100 µM (inactive)	> 100	> 100 µM (inactive)	> 100 µM (inactive)	> 100 µM (inactive)	> 100 µM (inactive)			> 100 µM (inactive)	> 100 µM (inactive)	> 100 µM (inactive)	> 100 µM (inactive)	> 100 µM (inactive)	> 100 µM (inactive)		> 100 µM (inactive)	> 100 µM (inactive)	> 100 µM (inactive)	91 µM (inactive)
CCOc1ccccc1NC(=O)C(=O)CC(=O)C1=C(C)Nc2ccccc2S1	> 100 µM (inactive)	> 100 µM (inactive)	> 100	> 21.1 µM (inactive)	> 100 µM (inactive)	> 100 µM (inactive)	> 100 µM (inactive)			> 49.7 µM (inactive)	> 100 µM (inactive)	> 100 µM (inactive)	> 100 µM (inactive)	> 100 µM (inactive)	> 100 µM (inactive)		> 100 µM (inactive)	> 100 µM (inactive)	> 100 µM (inactive)	> 100 µM (inactive)
COc1cc([C@@H]2c3cc4c(cc3[C@@H](NCc3ccccc3)C3COC(=O)[C@@H]32)OCO4)cc(OC)c1O (stereo partly specified)	1.41 µM (inactive)	1.17 µM (inactive)	6.34	2.74 µM (inactive)	16.4 µM (inactive)	21.3 µM (inactive)	12.8 µM (inactive)			0.891 µM (active)	3.64 µM (inactive)	0.547 µM (active)	17.8 µM (inactive)	38.2 µM (inactive)	29 µM (inactive)		3.8 µM (inactive)	4.03 µM (inactive)	6 µM (inactive)	6.21 µM (inactive)
COc1cc2cnc3c4cc(OCc5ccccc5)ccc4ccc3c2cc1OC	25.5 µM (inactive)	46.7 µM (inactive)	70.1	1.66 µM (inactive)	25.1 µM (inactive)	28.1 µM (inactive)	29.8 µM (inactive)			5.06 µM (inactive)	25.2 µM (inactive)	19 µM (inactive)	40.6 µM (inactive)	6.92 µM (inactive)	> 100 µM (inactive)		2.96 µM (inactive)	15.6 µM (inactive)	34 µM (inactive)	3.94 µM (inactive)
NC(=O)c1cn(C2OC(CO)C(O)C2O)c(=O)[nH]c1=O (stereo unspecified)	> 100 µM (inactive)	> 100 µM (inactive)	> 100	> 100 µM (inactive)	> 100 µM (inactive)	> 100 µM (inactive)	> 100 µM (inactive)			> 100 µM (inactive)	> 100 µM (inactive)	> 100 µM (inactive)	> 100 µM (inactive)	> 100 µM (inactive)	> 100 µM (inactive)		> 100 µM (inactive)	> 100 µM (inactive)	> 100 µM (inactive)	> 100 µM (inactive)
O=C1O/C(=C(/Cl)c2cccc3ccccc23)c2ccccc21	> 100 µM (inactive)		> 100	> 100 µM (inactive)	> 100 µM (inactive)	> 100 µM (inactive)	7.62 µM (inactive)		> 100 µM (inactive)	> 100 µM (inactive)	> 100 µM (inactive)	> 100 µM (inactive)	> 100 µM (inactive)	> 100 µM (inactive)	> 100 µM (inactive)	> 100 µM (inactive)	> 100 µM (inactive)	47 µM (inactive)	> 100 µM (inactive)	22.2 µM (inactive)
CC(N)CC(=O)O (stereo unspecified)	2850 µM (inactive)	> 5000 µM (inactive)	> 5000	> 5000 µM (inactive)	> 5000 µM (inactive)	> 5000 µM (inactive)	> 5000 µM (inactive)			> 5000 µM (inactive)	> 5000 µM (inactive)	> 5000 µM (inactive)	> 5000 µM (inactive)	> 5000 µM (inactive)	> 5000 µM (inactive)		> 5000 µM (inactive)	> 5000 µM (inactive)	> 5000 µM (inactive)	> 5000 µM (inactive)
CC(=O)[O-].[Zn+].c1ccc(/C(=N\Nc2ccccn2)c2ccccn2)cc1	0.344 µM (active)	0.0653 µM (active)	0.0137	0.00121 µM (active)	0.01 µM (active)	0.0374 µM (active)	0.356 µM (active)		0.408 µM (active)	0.000773 µM (active)	0.0155 µM (active)	0.31 µM (active)	0.0015 µM (active)	0.603 µM (active)	0.025 µM (active)	0.03 µM (active)	0.01 µM (active)	0.348 µM (active)	0.337 µM (active)	0.914 µM (active)
CO[C@H](C(=O)O[C@H]1C(=O)N2CCC3CCC1C32C)c1ccccc1 (stereo partly specified)	> 100 µM (inactive)	> 100 µM (inactive)	> 100	> 100 µM (inactive)	> 100 µM (inactive)	> 100 µM (inactive)	> 100 µM (inactive)			> 100 µM (inactive)	> 100 µM (inactive)	> 100 µM (inactive)	> 100 µM (inactive)	> 100 µM (inactive)	> 100 µM (inactive)		> 100 µM (inactive)	> 100 µM (inactive)	> 100 µM (inactive)	> 100 µM (inactive)
CC/C=C\C/C=C\C/C=C\CCCCCCCC(=O)OCC(O)CO (stereo unspecified)	> 84.9 µM (inactive)	> 58.5 µM (inactive)	> 63.4	20.7 µM (inactive)	> 68.5 µM (inactive)	> 92.3 µM (inactive)	> 56.9 µM (inactive)			> 46.2 µM (inactive)	> 74.5 µM (inactive)	> 69.3 µM (inactive)	40.9 µM (inactive)	> 84.3 µM (inactive)	> 100 µM (inactive)		43.4 µM (inactive)	> 83.2 µM (inactive)	> 100 µM (inactive)	> 100 µM (inactive)
